Experimental data as given in PubChem BioAssay AID190 (DTP/NCI, 2004).
Several values for one entry are separate records, joined by “and”; a condition that tells them apart may be missing. Equal values may be shown once. Inconclusive results and toxic doses are left out. Rule for the calls: active = survival T/C of 150% or more; inactive = T/C below 125% in these data.

Tested on: AKR/Lw mice, AKR lymphoma ip, median survival T/C
Assay: NCI In Vivo Anticancer Drug Screen. Data for tumor model Lymphoma AKR (Transplanted) (intraperitoneal) in AKR/Lw mice
Settings: endpoint: median survival time, higher = longer survival
Experimental: The antitumor activity of compounds was measured in mice bearing transplantable tumors. Survival or tumor size were measured and the results are expressed as the measurement made in the treated group (T) divided by the measurement made in the vehicle treated control group (C). The tumor model used in this assay is Lymphoma AKR (Transplanted) (intraperitoneal) in AKR/Lw mice

[1] = dose: 25.0 mg/kg/injection, schedule: Q01DX009 (ip), vehicle: Klucel (hydroxypropylcellulose) (HPC)
[2] = dose: 100.0 mg/kg/injection, schedule: Q01DX001 (ip), vehicle: saline
[3] = dose: 200.0 mg/kg/injection, schedule: Q01DX001 (ip), vehicle: saline

Measured: T/C

NC(CSC(c1ccccc1)(c1ccccc1)c1ccccc1)C(=O)O (stereo not drawn)
inactive: dose: 0.6 mg/kg/injection, schedule: Q01DX009 (ip), vehicle: Klucel (hydroxypropylcellulose) (HPC) 111 % of control | dose: 1.2 mg/kg/injection, schedule: Q01DX009 (ip), vehicle: Klucel (hydroxypropylcellulose) (HPC) 114 % of control and 117 % of control | dose: 2.5 mg/kg/injection, schedule: Q01DX009 (ip), vehicle: Klucel (hydroxypropylcellulose) (HPC) 117 % of control | dose: 5.0 mg/kg/injection, schedule: Q01DX009 (ip), vehicle: Klucel (hydroxypropylcellulose) (HPC) 88 % of control and 120 % of control | dose: 6.0 mg/kg/injection, schedule: Q01DX009 (ip), vehicle: Klucel (hydroxypropylcellulose) (HPC) 94 % of control | dose: 6.2 mg/kg/injection, schedule: Q04DX003 (ip), vehicle: Klucel (hydroxypropylcellulose) (HPC) 108 % of control | dose: 6.25 mg/kg/injection, schedule: Q01DX009 (ip), vehicle: Klucel (hydroxypropylcellulose) (HPC) 94 % of control | dose: 10.0 mg/kg/injection, schedule: Q01DX009 (ip), vehicle: Klucel (hydroxypropylcellulose) (HPC) 102 % of control | dose: 12.0 mg/kg/injection, schedule: Q01DX009 (ip), vehicle: Klucel (hydroxypropylcellulose) (HPC) 88 % of control | dose: 12.5 mg/kg/injection, schedule: Q01DX009 (ip), vehicle: Klucel (hydroxypropylcellulose) (HPC) 94 % of control | dose: 12.5 mg/kg/injection, schedule: Q04DX003 (ip), vehicle: Klucel (hydroxypropylcellulose) (HPC) 91 % of control and 94 % of control and 102 % of control | dose: 20.0 mg/kg/injection, schedule: Q01DX009 (ip), vehicle: Klucel (hydroxypropylcellulose) (HPC) 102 % of control and 108 % of control | [1] 91 % of control and 100 % of control | dose: 25.0 mg/kg/injection, schedule: Q01DX009 (ip), vehicle: saline 94 % of control and 97 % of control and 109 % of control | dose: 25.0 mg/kg/injection, schedule: Q04DX003 (ip), vehicle: Klucel (hydroxypropylcellulose) (HPC) 94 % of control and 97 % of control | dose: 25.0 mg/kg/injection, schedule: Q04DX003 (ip), vehicle: saline 102 % of control | dose: 37.5 mg/kg/injection, schedule: Q01DX001 (ip), vehicle: saline 102 % of control and 103 % of control (2×) | dose: 50.0 mg/kg/injection, schedule: Q01DX009 (ip), vehicle: saline 105 % of control | dose: 50.0 mg/kg/injection, schedule: Q04DX003 (ip), vehicle: saline 97 % of control | dose: 75.0 mg/kg/injection, schedule: Q01DX001 (ip), vehicle: saline 95 % of control and 103 % of control and 110 % of control | dose: 100.0 mg/kg/injection, schedule: Q01DX001 (ip), vehicle: Klucel (hydroxypropylcellulose) (HPC) 97 % of control | [2] 100 % of control | dose: 100.0 mg/kg/injection, schedule: Q04DX003 (ip), vehicle: saline 91 % of control | dose: 150.0 mg/kg/injection, schedule: Q01DX001 (ip), vehicle: saline 90 % of control and 105 % of control and 106 % of control | dose: 200.0 mg/kg/injection, schedule: Q01DX001 (ip), vehicle: Klucel (hydroxypropylcellulose) (HPC) 109 % of control | dose: 400.0 mg/kg/injection, schedule: Q01DX001 (ip), vehicle: Klucel (hydroxypropylcellulose) (HPC) 118 % of control

CN(C)c1nc(N(C)C)nc(N(C)C)n1
inactive: dose: 80.0 mg/kg/injection, schedule: Q04DX003 (ip), vehicle: Klucel (hydroxypropylcellulose) (HPC) 111 % of control | dose: 160.0 mg/kg/injection, schedule: Q04DX003 (ip), vehicle: Klucel (hydroxypropylcellulose) (HPC) 108 % of control

COc1ccc(/C=C2/CSC/C(=C/c3ccc(OC)c(OC)c3)C2=O)cc1OC
inactive: [2] 96 % of control | [3] 88 % of control | dose: 400.0 mg/kg/injection, schedule: Q01DX001 (ip), vehicle: saline 90 % of control

N#CCCNc1ccc(NC(=O)C(F)(F)F)cc1
inactive: [1] 96 % of control | dose: 50.0 mg/kg/injection, schedule: Q01DX009 (ip), vehicle: Klucel (hydroxypropylcellulose) (HPC) 89 % of control | dose: 50.0 mg/kg/injection, schedule: Q04DX003 (ip), vehicle: other 90 % of control | [2] 103 % of control | dose: 100.0 mg/kg/injection, schedule: Q04DX003 (ip), vehicle: other 95 % of control | [3] 100 % of control | dose: 200.0 mg/kg/injection, schedule: Q04DX003 (ip), vehicle: other 95 % of control
